Measurements from patent US20080234130A1, “Compositions providing tolerance to multiple herbicides and methods of use thereof” (priority 2005, published 2008).

Tests used:
[1] = test system: heterozygous GAT-HRA corn; experiment: Preemergence effect of ALS herbicides (fresh weight, visual injury); settings: 200 g/ha, mean of four replications; for % Visual Injury Heterozygous GAT-HRA: 4 weeks after treatment, 0% no injury, 100% plant death; for Fresh Weight (g) Heterozygous GAT-HRA: fresh shoots 4 weeks after treatment, untreated 47.0 g
[2] = test system: heterozygous GAT-HRA corn; experiment: Postemergence effect of ALS herbicides, glyphosate and glufosinate (fresh weight, visual injury); settings: 200 g/ha (glyphosate 3472 g ae/ha, glufosinate ammonium 1870 g/ha), mean of four replications; for % Visual Injury Heterozygous GAT-HRA: 2 weeks after treatment, 0% no injury, 100% plant death; for Fresh Weight (g) Heterozygous GAT-HRA: applied two weeks after planting, fresh shoots 2 weeks after treatment, untreated 98.8 g
[3] = test system: parent elite stiff stalk inbred corn; experiment: as above; settings: 200 g/ha (glyphosate 3472 g ae/ha, glufosinate ammonium 1870 g/ha), mean of four replications; for % Visual Injury Parent elite stiff stalk inbred: 2 weeks after treatment, 0% no injury, 100% plant death; for Fresh Weight (g) Parent elite stiff stalk inbred: applied two weeks after planting, fresh shoots 2 weeks after treatment, untreated 76.4 g
[4] = test system: parent elite stiff stalk inbred corn; experiment: Preemergence effect of ALS herbicides (fresh weight, visual injury); settings: 200 g/ha, mean of four replications; for % Visual Injury Patent elite stiff stalk inbred: 4 weeks after treatment, 0% no injury, 100% plant death; for Fresh Weight (g) patent elite stiff stalk inbred: fresh shoots 4 weeks after treatment, untreated 36.7 g

## COC(=O)c1ccccc1CS(=O)(=O)NC(=O)Nc1nc(OC)cc(OC)n1 [Bensulfuron-methyl, methyl 2-[[[[[(4,6-dimethoxy-2-pyrimidinyl)amino]carbonyl]amino]sulfonyl]methyl]benzoate]
[1]
  % Visual Injury Heterozygous GAT-HRA: 10%
[2]
  % Visual Injury Heterozygous GAT-HRA: 14%
[3]
  % Visual Injury Parent elite stiff stalk inbred: 93%
[4]
  % Visual Injury Patent elite stiff stalk inbred: 23%

## COc1nc(C)nc(NC(=O)NS(=O)(=O)c2ccccc2Cl)n1 [Chlorsulfuron, 2-chloro-N-[[(4-methoxy-6-methyl-1,3,5-triazin-2-yl)amino]-carbonyl]benzenesulfonamide]
[1]
  % Visual Injury Heterozygous GAT-HRA: 33%
[2]
  % Visual Injury Heterozygous GAT-HRA: 13%
[3]
  % Visual Injury Parent elite stiff stalk inbred: 100%
[4]
  % Visual Injury Patent elite stiff stalk inbred: 100%

## CCOc1nc(NC)nc(NC(=O)NS(=O)(=O)c2ccccc2C(=O)OC)n1 [Ethametsulfuron-methyl, methyl 2-[[[[[4-ethoxy-6-(methylamino)-1,3,5-triazin-2-yl]amino]carbonyl]amino]sulfonyl]benzoate]
[1]
  % Visual Injury Heterozygous GAT-HRA: 88%
  Fresh Weight (g) Heterozygous GAT-HRA: 50.1 g
[2]
  % Visual Injury Heterozygous GAT-HRA: 6%
  Fresh Weight (g) Heterozygous GAT-HRA: 98.0 g
[3]
  % Visual Injury Parent elite stiff stalk inbred: 96%
  Fresh Weight (g) Parent elite stiff stalk inbred: 5.6 g
[4]
  % Visual Injury Patent elite stiff stalk inbred: 100%
  Fresh Weight (g) patent elite stiff stalk inbred: 1.6 g

## CCOc1ccccc1OS(=O)(=O)NC(=O)Nc1nc(OC)cc(OC)n1 [Ethoxysulfuron, 2-ethoxyphenyl[[(4,6-dimethoxy-2-pyrimidinyl)amino]carbonyl]sulfamate]
[1]
  % Visual Injury Heterozygous GAT-HRA: 25%
[2]
  % Visual Injury Heterozygous GAT-HRA: 15%
[3]
  % Visual Injury Parent elite stiff stalk inbred: 88%
[4]
  % Visual Injury Patent elite stiff stalk inbred: 63%

## COc1nn(C(=O)NS(=O)(=O)c2ccccc2OC(F)(F)F)c(=O)n1C [Flucarbazone Na^+, 4,5-dihydro-3-methoxy-4-methyl-5-oxo-N-[[2-(trifluoromethoxy)phenyl]sulfonyl]-1H-1,2,4-triazole-1-carboxamide]
[1]
  % Visual Injury Heterozygous GAT-HRA: 40%
[2]
  % Visual Injury Heterozygous GAT-HRA: 14%
[3]
  % Visual Injury Parent elite stiff stalk inbred: 100%
[4]
  % Visual Injury Patent elite stiff stalk inbred: 100%

## Cc1ccn2nc(S(=O)(=O)Nc3c(F)cccc3F)nc2n1 [Flumetsulam, N-(2,6-difluorophenyl)-5-methyl[1,2,4]triazolo[1,5-a]pyrimidine-2-sulfonamide]
[1]
  % Visual Injury Heterozygous GAT-HRA: 13%
[2]
  % Visual Injury Heterozygous GAT-HRA: 3%
[3]
  % Visual Injury Parent elite stiff stalk inbred: 85%
[4]
  % Visual Injury Patent elite stiff stalk inbred: 13%

## COc1cc(OC)nc(NC(=O)NS(=O)(=O)c2cc(NC=O)ccc2C(=O)N(C)C)n1 [Foramsulfuron, 2-[[[[(4,6-dimethoxy-2-pyrimidinyl)amino]carbonyl]amino]sulfonyl]-4-(formylamino)-N,N-dimethylbenzamide]
[1]
  % Visual Injury Heterozygous GAT-HRA: 7%
[2]
  % Visual Injury Heterozygous GAT-HRA: 8%
[3]
  % Visual Injury Parent elite stiff stalk inbred: 28%
[4]
  % Visual Injury Patent elite stiff stalk inbred: 5%

## CP(=O)(O)CCC(N)C(=O)O (stereo not shown) [Glufosinate ammonium]
[2]
  % Visual Injury Heterozygous GAT-HRA: 1%
  Fresh Weight (g) Heterozygous GAT-HRA: 112.3 g
[3]
  % Visual Injury Parent elite stiff stalk inbred: 99%
  Fresh Weight (g) Parent elite stiff stalk inbred: 2.4 g

## COC(=O)c1c(Cl)nn(C)c1S(=O)(=O)NC(=O)Nc1nc(OC)cc(OC)n1 [Halosulfuron-methyl, methyl 3-chloro-5-[[[[(4,6-dimethoxy-2-pyrimidinyl)amino]-carbonyl]amino]sulfonyl]-1-methyl-1H-pyrazole-4-carboxylate]
[1]
  % Visual Injury Heterozygous GAT-HRA: 15%
[2]
  % Visual Injury Heterozygous GAT-HRA: 8%
[3]
  % Visual Injury Parent elite stiff stalk inbred: 14%
[4]
  % Visual Injury Patent elite stiff stalk inbred: 30%

## COCc1cnc(C2=NC(C)(C(C)C)C(=O)N2)c(C(=O)O)c1 (stereo not shown) [Imazamox]
[1]
  % Visual Injury Heterozygous GAT-HRA: 13%
  Fresh Weight (g) Heterozygous GAT-HRA: 47.5 g
[2]
  % Visual Injury Heterozygous GAT-HRA: 4%
  Fresh Weight (g) Heterozygous GAT-HRA: 90.9 g
[3]
  % Visual Injury Parent elite stiff stalk inbred: 100%
  Fresh Weight (g) Parent elite stiff stalk inbred: 2.2 g
[4]
  % Visual Injury Patent elite stiff stalk inbred: 99%
  Fresh Weight (g) patent elite stiff stalk inbred: 0.8 g

## CC(C)C1(C)N=C(c2nc3ccccc3cc2C(=O)O)NC1=O (stereo not shown) [Imazaquin]
[1]
  % Visual Injury Heterozygous GAT-HRA: 28%
  Fresh Weight (g) Heterozygous GAT-HRA: 45.4 g
[2]
  % Visual Injury Heterozygous GAT-HRA: 2%
  Fresh Weight (g) Heterozygous GAT-HRA: 113.3 g
[3]
  % Visual Injury Parent elite stiff stalk inbred: 100%
  Fresh Weight (g) Parent elite stiff stalk inbred: 4.4 g
[4]
  % Visual Injury Patent elite stiff stalk inbred: 99%
  Fresh Weight (g) patent elite stiff stalk inbred: 1.5 g

## CCc1cnc(C2=NC(C)(C(C)C)C(=O)N2)c(C(=O)O)c1 (stereo not shown) [Imazethapyr]
[1]
  % Visual Injury Heterozygous GAT-HRA: 20%
[2]
  % Visual Injury Heterozygous GAT-HRA: 9%
[3]
  % Visual Injury Parent elite stiff stalk inbred: 97%
[4]
  % Visual Injury Patent elite stiff stalk inbred: 69%

## COc1cc(OC)nc(NC(=O)NS(=O)(=O)c2ncccc2C(=O)N(C)C)n1 [Nicosulfuron, 2-[[[[(4,6-dimethoxy-2-pyrimidinyl)amino]carbonyl]amino]sulfonyl]-N,N-dimethyl-3-pyridinecarboxamide]
[1]
  % Visual Injury Heterozygous GAT-HRA: 0%
  Fresh Weight (g) Heterozygous GAT-HRA: 50.3 g
[2]
  % Visual Injury Heterozygous GAT-HRA: 0%
  Fresh Weight (g) Heterozygous GAT-HRA: 94.7 g
[3]
  % Visual Injury Parent elite stiff stalk inbred: 24%
  Fresh Weight (g) Parent elite stiff stalk inbred: 62.7 g
[4]
  % Visual Injury Patent elite stiff stalk inbred: 43%
  Fresh Weight (g) patent elite stiff stalk inbred: 33.6 g

## CCCOc1nn(C(=O)NS(=O)(=O)c2ccccc2C(=O)OC)c(=O)n1C [Propoxycarbazone Na^+, methyl 2-[[[(4,5-dihydro-4-methyl-5-oxo-3-propoxy-1H-1,2,4-triazol-1-yl)carbonyl]amino]sulfonyl]benzoate]
[1]
  % Visual Injury Heterozygous GAT-HRA: 100%
  Fresh Weight (g) Heterozygous GAT-HRA: 46.7 g
[2]
  % Visual Injury Heterozygous GAT-HRA: 9%
  Fresh Weight (g) Heterozygous GAT-HRA: 101.2 g
[3]
  % Visual Injury Parent elite stiff stalk inbred: 100%
  Fresh Weight (g) Parent elite stiff stalk inbred: 1.9 g
[4]
  % Visual Injury Patent elite stiff stalk inbred: 100%
  Fresh Weight (g) patent elite stiff stalk inbred: 0.6 g

## COc1nc(C)nc(NC(=O)NS(=O)(=O)c2ccccc2CCC(F)(F)F)n1 [Prosulfuron, N-[[(4-methoxy-6-methyl-1,3,5-triazin-2-yl)amino]carbonyl]-2-(3,3,3-trifluoropropyl)benzenesulfonamide]
[1]
  % Visual Injury Heterozygous GAT-HRA: 9%
[2]
  % Visual Injury Heterozygous GAT-HRA: 29%
[3]
  % Visual Injury Parent elite stiff stalk inbred: 25%
[4]
  % Visual Injury Patent elite stiff stalk inbred: 68%

## CO/N=C(/C)c1cccc(Oc2nc(OC)cc(OC)n2)c1C(=O)OC [Pyriminobac-methyl]
[1]
  % Visual Injury Heterozygous GAT-HRA: 20%
  Fresh Weight (g) Heterozygous GAT-HRA: 39.9 g
[2]
  % Visual Injury Heterozygous GAT-HRA: 4%
  Fresh Weight (g) Heterozygous GAT-HRA: 95.2 g
[3]
  % Visual Injury Parent elite stiff stalk inbred: 93%
  Fresh Weight (g) Parent elite stiff stalk inbred: 7.6 g
[4]
  % Visual Injury Patent elite stiff stalk inbred: 83%
  Fresh Weight (g) patent elite stiff stalk inbred: 30.4 g

## COc1cc(OC)nc(Sc2cccc(Cl)c2C(=O)[O-])n1.[Na+] [Pyrithiobac Na^+, pyrithiobac-sodium]
[1]
  % Visual Injury Heterozygous GAT-HRA: 0%
  Fresh Weight (g) Heterozygous GAT-HRA: 48.6 g
[2]
  % Visual Injury Heterozygous GAT-HRA: 9%
  Fresh Weight (g) Heterozygous GAT-HRA: 87.9 g
[3]
  % Visual Injury Parent elite stiff stalk inbred: 100%
  Fresh Weight (g) Parent elite stiff stalk inbred: 2.8 g
[4]
  % Visual Injury Patent elite stiff stalk inbred: 100%
  Fresh Weight (g) patent elite stiff stalk inbred: 0.0 g

## COC(=O)c1ccccc1S(=O)(=O)NC(=O)Nc1nc(C)cc(C)n1 [Sulfometuron-methyl, methyl 2-[[[[(4,6-dimethyl-2-pyrimidinyl)amino]carbonyl]amino]sulfonyl]-benzoate]
[1]
  % Visual Injury Heterozygous GAT-HRA: 6%
  Fresh Weight (g) Heterozygous GAT-HRA: 47.3 g
[2]
  % Visual Injury Heterozygous GAT-HRA: 2%
  Fresh Weight (g) Heterozygous GAT-HRA: 104.5 g
[3]
  % Visual Injury Parent elite stiff stalk inbred: 100%
  Fresh Weight (g) Parent elite stiff stalk inbred: 2.0 g
[4]
  % Visual Injury Patent elite stiff stalk inbred: 100%
  Fresh Weight (g) patent elite stiff stalk inbred: 0.0 g

## CCS(=O)(=O)c1nc2ccccn2c1S(=O)(=O)NC(=O)Nc1nc(OC)cc(OC)n1 [Sulfosulfuron, N-[[(4,6-dimethoxy-2-pyrimidinyl)amino]carbonyl]-2-(ethylsulfonyl)imidazo[1,2-a]pyridine-3-sulfonamide]
[1]
  % Visual Injury Heterozygous GAT-HRA: 18%
[2]
  % Visual Injury Heterozygous GAT-HRA: 3%
[3]
  % Visual Injury Parent elite stiff stalk inbred: 97%
[4]
  % Visual Injury Patent elite stiff stalk inbred: 100%

## COC(=O)c1sccc1S(=O)(=O)NC(=O)Nc1nc(C)nc(OC)n1 [Thifensulfuron-methyl, methyl 3-[[[[(4-methoxy-6-methyl-1,3,5-triazin-2-yl)amino]carbonyl]amino]sulfonyl]-2-thiophenecarboxylate]
[1]
  % Visual Injury Heterozygous GAT-HRA: 3%
[2]
  % Visual Injury Heterozygous GAT-HRA: 10%
[3]
  % Visual Injury Parent elite stiff stalk inbred: 98%
[4]
  % Visual Injury Patent elite stiff stalk inbred: 88%
